Reference: patent US6664083B2, “Methods for racemizing N-acylamino acids and producing optically active amino acids” (Daichel Chemical Industries, Ltd., priority 2000, dated 2003)

Tested on: N-acylamino acid racemase
Test: Influence of metal ions on N-acylamino acid racemase activity
Type: biochemical, Sebekia benihana
Conditions: 1 mM
Experimental: (§1) The activity of N-acylamino acid racemase was measured by the following method.
(§2) To this reaction solution, 50 μl of enzyme solution was added, and the 500 μl of the mixture was allowed to react for 5 minutes (or for several ten minutes if the activity was low) at 30° C., followed by heating at 100° C. for 3 minutes to stop the reaction. Subsequently, 3 U of L-amino acylase were added to the mixture, and incubated for 1 hour at 30° C. The mixture was then heated at 100° C. for 3 minutes to stop the reaction.
(§3) The amount of L-methionine produced was measured by TNBS method after the reaction was stopped. The enzyme activity was defined as 1 unit (U) when 1 μmole of N-acetyl-L-methionine was produced from N-acetyl-D-methionine in a minute.
Influence of various metal ions on N-acylamino acid racemase was examined in the enzymatic activity assay in which cobalt chloride (final concentration 1 mM) to be added was omitted from the reaction solution and instead each ion was added to the reaction at a final concentration of 1 mM. The mixture was incubated for 5 minutes at 30° C., and the amount of L-methionine produced was measured to determine the effect of each metal ion on the N-acylamino acid racemase, using the reaciton solution without any metal ions as a control. The enzyme activities were represented as relative activities, taking the activity in the presence of Co as 100.

With `O.O.O.O.O.O.[Cl-].[Cl-].[Co+2]` [CoCl2.6H2O] the “effect of metal ion on NAAR activity” value was “effect of activation”.

Same assay, conditions: metal ion 1 mM instead of cobalt chloride, 5 minutes at 30° C.; activity in the presence of Co taken as 100

In order of rising “Relative activity (%)” value:
1. O.O.[Cl][Cu][Cl] [CuCl2.2H2O]  3%
2. Al2(SO4)3.14˜18H2O  3%
3. O.O.O.O.O.O.[Cl-].[Cl-].[Cl-].[Fe+3] [FeCl3.6H2O]  6%
4. O.O.[Cl][Sn][Cl] [SnCl2.2H2O]  9%
5. O.O.[Ca+2].[Cl-].[Cl-] [CaCl2.2H2O]  12%
6. O.O.[Ba+2].[Cl-].[Cl-] [BaCl2.2H2O]  14%
7. [Cl-].[K+] [KCl]  16%
8. [Cl-].[Na+] [NaCl]  17%
9. [Cl-].[Cl-].[Zn+2] [ZnCl2]  20%
10. O.O.O.O.O.O.[Cl-].[Cl-].[Mg+2] [MgCl2.6H2O]  27%
11. [Cl][Fe][Cl] [FeCl2.nH2O]  34%
12. O.O.O.O.O.O.[Cl][Ni][Cl] [NiCl2.6H2O]  37%
13. O.O.O.O.[Cl][Mn][Cl] [MnCl2.4H2O]  60%
14. O.O.O.O.O.O.[Cl-].[Cl-].[Co+2] [CoCl2.6H2O]  100%

Tested on: N-acylamino acid racemase
Test: Substrate specificity of N-acylamino acid racemase (enzyme activity assay, TNBS method)
Type: biochemical, Sebekia benihana
Conditions: substrate 20 mM, 1 mM cobalt chloride, pH 7.5, 30° C.; activity on N-acetyl-D-methionine taken as 100
Experimental: The activity of N-acylamino acid racemase was measured by the following method. First, the following reaction solution was prepared. [table] […] Subsequently, 3 U of L-amino acylase were added to the mixture, and incubated for 1 hour at 30° C. The mixture was then heated at 100° C. for 3 minutes to stop the reaction. The amount of L-methionine produced was measured by TNBS method after the reaction was stopped. […] Substrate specificity was determined by measuring enzyme activities according to the above-mentioned enzyme assay, with varying the substrate in the reaction.

In order of falling “Relative activity (%)” value:
1. CC(=O)N[C@H](C(=O)O)C(C)C [N-acctylvaline]  146%
2. CSCC[C@H](NC(C)=O)C(=O)O [N-acetylmethionine]  100%
3. CC(=O)N[C@@H](C)C(=O)O [N-acetylalanine]  86%
4. CC(=O)N[C@@H](CC(C)C)C(=O)O [N-acetylleucine]  78%
5. CC(=O)N[C@@H](Cc1ccccc1)C(=O)O [N-acetylphenylalanine]  74%
6. CC(=O)N[C@@H](Cc1c[nH]c2ccccc12)C(=O)O [N-acetyltryptophan]  69%
7. CC(=O)N[C@@H](CC(=O)O)C(=O)O [N-acetylaspartic acid]  68%

Tested on: N-acylamino acid racemase
Test: Influence of inhibitors on N-acylamino acid racemase activity
Type: biochemical, Sebekia benihana
Conditions: not given
Experimental: as §1, §2, §3
Influence of various enzyme inhibitors on N-acylamino acid racemase was examined in the enzymatic activity assay in which each inhibitor was added to the reaction solution at the final concentration of 1 mM. The mixture was incubated for 10 minutes at 30° C., using the reaction solution without any inhibitors as a control. […] For EDTA, enzyme activity was measured at a final concentration of 5 mM as well as 1 mM.

For `O=C(O)CI` [Monoiodoacetic acid], the NAAR activity inhibited was “inhibited”.

`O=C(O)CI` [Monoiodoacetic acid] was tested, and the “Relative activity (%)” value was 22%.

Same assay, conditions: inhibitor 1 mM, 10 minutes at 30° C.; activity in the absence of inhibitors taken as 100

In order of falling “Relative activity (%)” value:
1. [I-].[K+] [KI]  97%
2. CCN1C(=O)C=CC1=O [N-ethylmaleimide]  96%
3. [F-].[Na+] [NaF]  94%
4. NO [Hydroxylammonium chloride]  88%
5. O=S(=O)(F)Cc1ccccc1 [phenylmethanesulfonyl fluoride]  84%
6. O[C@H](CS)[C@H](O)CS (racemic) [dithiothreitol]  84%
7. NN.O=S(=O)(O)O [Hydrazinium Sulfate]  69%
8. O=C(NNc1ccccc1)NNc1ccccc1 [1,5-Diphenylcarbonohydrazide]  68%
9. c1ccc(-c2ccccn2)nc1 [2,2′-Bipyridyl]  55%
10. O=C(O)c1cc[c]([Hg][Cl])cc1 [p-chloromercuribenzoic acid]  11%
11. O=C(O)CN(CCN(CC(=O)O)CC(=O)O)CC(=O)O [EDTA]  10%

Same assay, conditions: inhibitor 10 mM (table), 10 minutes at 30° C.; activity in the absence of inhibitors taken as 100

`O=C(O)CN(CCN(CC(=O)O)CC(=O)O)CC(=O)O` [EDTA] was tested, and the “Relative activity (%)” value was 0%.

Same assay, conditions: result in words

For `O=C(O)CN(CCN(CC(=O)O)CC(=O)O)CC(=O)O` [EDTA], the NAAR activity inhibited was “inhibited”.
With `O=C(O)c1cc[c]([Hg][Cl])cc1` [p-chloromercuribenzoic acid] the NAAR activity inhibited was “inhibited”.

Tested on: N-acylamino acid racemase
Test: Racemization of N-acetyltryptophan by N-acylamino acid racemase, optical purity by chiral HPLC
Type: biochemical, Sebekia benihana
Conditions: 0.5% substrate, 1 U NAAR, pH 6.5, 30° C. overnight
Experimental: A reaction solution containing 100 mM potassium phosphate buffer (pH 6.5), 1 U of the N-acylamino acid racemase, and 0.5% N-acetyl-L-tryptophan or N-acetyl-D-tryptophan was incubated at 30° C. overnight. Racemization was verified by measuring optical purity of tryptophan in the reaction solution by HPLC. The optical purity of N-acetyltryptophan was determined as follows. N-acetyltryptophan was extracted from the reaction solution with methyl ethyl ketone. After the solvent was removed, the reaction product was resolved by liquid chromatography using an optical resolution column. The measurement was carried out at room temperature, using CHIRALPAK WH (DAICEL CHEMICAL INDUSTRIES, LTD.) as the optical resolution column, and aqueous solution of 0.25 mM cupric sulfate as eluent (flow rate, 1 ml/min; detection wavelength, 254 nm) to determine the quantity and optical purity. As a result, it was shown that N-acetyltryptophan produced from either N-acetyl-L-tryptophan or N-acetyl-D-tryptophan by the method of the present invention was a racemate with optical purity of nearly 0% ee at the end of the reaction.

In the case of `CC(=O)N[C@@H](Cc1c[nH]c2ccccc12)C(=O)O` [N-acetyl-L-tryptophan], the “optical purity of N-acetyltryptophan at the end of the reaction” value is reported as roughly 0 % ee.
In the case of `CC(=O)N[C@H](Cc1c[nH]c2ccccc12)C(=O)O` [N-acetyl-D-tryptophan], the “optical purity of N-acetyltryptophan at the end of the reaction” value is reported as roughly 0 % ee.
